Key:
Type in all cases: functional
SR = test: Growth inhibition of human SR cells assessed as cell growth at 0.003 uM incubated for 48 hrs by sulforhodamine B assay relative to control; conditions: read-out: Activity
UO-31 [1] = test: Growth inhibition of human UO31 cells assessed as cell growth at 0.003 uM incubated for 48 hrs by sulforhodamine B assay relative to control; conditions: UO-31, 48 h, read-out: Activity
COLO 205 = test: Growth inhibition of human COLO205 cells assessed as cell growth at 0.03 uM incubated for 48 hrs by sulforhodamine B assay relative to control; conditions: COLO 205, 48 h, read-out: Activity
SK-MEL-2 = test: Growth inhibition of human SK-MEL-2 cells assessed as cell growth at 0.03 uM incubated for 48 hrs by sulforhodamine B assay relative to control; conditions: SK-MEL-2, 48 h, read-out: Activity
SK-MEL-5 = test: Growth inhibition of human SK-MEL-5 cells assessed as cell growth at 0.03 uM incubated for 48 hrs by sulforhodamine B assay relative to control; conditions: SK-MEL-5, 48 h, read-out: Activity
OVCAR-3 = test: Growth inhibition of human OVCAR3 cells assessed as cell growth at 0.03 uM incubated for 48 hrs by sulforhodamine B assay relative to control; conditions: OVCAR-3, 48 h, read-out: Activity
HL-60(TB) = test: Growth inhibition of human HL-60(TB) cells assessed as cell growth at 0.3 uM incubated for 48 hrs by sulforhodamine B assay relative to control; conditions: HL-60, 48 h, read-out: Activity
NCI-H322M [2] = test: Growth inhibition of human NCI-H322M cells assessed as cell growth at 0.3 uM incubated for 48 hrs by sulforhodamine B assay relative to control; conditions: read-out: Activity
UACC-257 = test: Growth inhibition of human UACC257 cells assessed as cell growth at 0.3 uM incubated for 48 hrs by sulforhodamine B assay relative to control; conditions: UACC-257, 48 h, read-out: Activity
A498 = test: Growth inhibition of human A498 cells assessed as cell growth at 0.3 uM incubated for 48 hrs by sulforhodamine B assay relative to control; conditions: A498, 48 h, read-out: Activity
UO-31 [3] = test: Growth inhibition of human UO31 cells assessed as cell growth at 0.3 uM incubated for 48 hrs by sulforhodamine B assay relative to control; conditions: UO-31, 48 h, read-out: Activity
MDA-MB-231 [4] = test: Growth inhibition of human MDA-MB-231 cells assessed as cell growth at 0.3 uM incubated for 48 hrs by sulforhodamine B assay relative to control; conditions: MDA-MB-231, 48 h, read-out: Activity
T47D = test: Growth inhibition of human T47D cells assessed as cell growth at 0.3 uM incubated for 48 hrs by sulforhodamine B assay relative to control; conditions: read-out: Activity
SF-268 = test: Growth inhibition of human SF268 cells assessed as cell growth at 3 uM incubated for 48 hrs by sulforhodamine B assay relative to control; conditions: SF-268, 48 h, read-out: Activity
SNB-75 = test: Growth inhibition of human SNB75 cells assessed as cell growth at 3 uM incubated for 48 hrs by sulforhodamine B assay relative to control; conditions: SNB-75, 48 h, read-out: Activity
Malme-3M = test: Growth inhibition of human MALME-3M cells assessed as cell growth at 3 uM incubated for 48 hrs by sulforhodamine B assay relative to control; conditions: read-out: Activity
SN12C = test: Growth inhibition of human SN12C cells assessed as cell growth at 3 uM incubated for 48 hrs by sulforhodamine B assay relative to control; conditions: read-out: Activity
Hs-578T [5] = test: Growth inhibition of human Hs 578T cells assessed as cell growth at 3 uM incubated for 48 hrs by sulforhodamine B assay relative to control; conditions: read-out: Activity
HT-29 [6] = test: Growth inhibition of human HT-29 cells assessed as cell growth at 30 uM incubated for 48 hrs by sulforhodamine B assay relative to control; conditions: HT-29, 48 h, read-out: Activity
HOP-62 = test: Growth inhibition of human HOP62 cells assessed as cell growth at 0.01 uM incubated for 48 hrs by sulforhodamine B assay relative to control; conditions: HOP-62, 48 h, read-out: Activity
LOX IMVI = test: Growth inhibition of human LOXIMVI cells assessed as cell growth at 0.01 uM incubated for 48 hrs by sulforhodamine B assay relative to control; conditions: read-out: Activity
M14 = test: Growth inhibition of human M14 cells assessed as cell growth at 0.01 uM incubated for 48 hrs by sulforhodamine B assay relative to control; conditions: M14, 48 h, read-out: Activity
DU-145 = test: Growth inhibition of human DU145 cells assessed as cell growth at 0.01 uM incubated for 48 hrs by sulforhodamine B assay relative to control; conditions: DU-145, 48 h, read-out: Activity
IGROV-1 = test: Growth inhibition of human IGROV1 cells assessed as cell growth at 0.1 uM incubated for 48 hrs by sulforhodamine B assay relative to control; conditions: IGROV-1, 48 h, read-out: Activity
CAKI-1 = test: Growth inhibition of human Caki1 cells assessed as cell growth at 0.1 uM incubated for 48 hrs by sulforhodamine B assay relative to control; conditions: CAKI-1, 48 h, read-out: Activity
TK-10 = test: Growth inhibition of human TK10 cells assessed as cell growth at 0.1 uM incubated for 48 hrs by sulforhodamine B assay relative to control; conditions: TK-10, 48 h, read-out: Activity
MDA-MB-231 [7] = test: Growth inhibition of human MDA-MB-231 cells assessed as cell growth at 0.1 uM incubated for 48 hrs by sulforhodamine B assay relative to control; conditions: MDA-MB-231, 48 h, read-out: Activity
HCC 2998 [8] = test: Growth inhibition of human HCC2998 cells assessed as cell growth at 1 uM incubated for 48 hrs by sulforhodamine B assay relative to control; conditions: HCC 2998, 48 h, read-out: Activity
SK-OV-3 = test: Growth inhibition of human SKOV3 cells assessed as cell growth at 1 uM incubated for 48 hrs by sulforhodamine B assay relative to control; conditions: SK-OV-3, 48 h, read-out: Activity
HCC 2998 [9] = test: Growth inhibition of human HCC2998 cells assessed as cell growth at 10 uM incubated for 48 hrs by sulforhodamine B assay relative to control; conditions: HCC 2998, 48 h, read-out: Activity
HT-29 [10] = test: Growth inhibition of human HT-29 cells assessed as cell growth at 10 uM incubated for 48 hrs by sulforhodamine B assay relative to control; conditions: HT-29, 48 h, read-out: Activity
PC-3 = test: Growth inhibition of human PC3 cells assessed as cell growth at 10 uM incubated for 48 hrs by sulforhodamine B assay relative to control; conditions: PC-3, 48 h, read-out: Activity
NCI-H322M [11] = test: Growth inhibition of human NCI-H322M cells assessed as cell growth at 100 uM incubated for 48 hrs by sulforhodamine B assay relative to control; conditions: read-out: Activity
SF-539 = test: Growth inhibition of human SF539 cells assessed as cell growth at 100 uM incubated for 48 hrs by sulforhodamine B assay relative to control; conditions: SF-539, 48 h, read-out: Activity
Hs-578T [12] = test: Growth inhibition of human Hs 578T cells assessed as cell growth at 100 uM incubated for 48 hrs by sulforhodamine B assay relative to control; conditions: read-out: Activity

Compound	growth at 0.003 µM (SR)	growth at 0.003 µM (UO-31 [1])	growth at 0.03 µM (COLO 205)	growth at 0.03 µM (SK-MEL-2)	growth at 0.03 µM (SK-MEL-5)	growth at 0.03 µM (OVCAR-3)	growth at 0.3 µM (HL-60(TB))	growth at 0.3 µM (NCI-H322M [2])	growth at 0.3 µM (UACC-257)	growth at 0.3 µM (A498)	growth at 0.3 µM (UO-31 [3])	growth at 0.3 µM (MDA-MB-231 [4])	growth at 0.3 µM (T47D)	growth at 3 µM (SF-268)	growth at 3 µM (SNB-75)	growth at 3 µM (Malme-3M)	growth at 3 µM (SN12C)	growth at 3 µM (Hs-578T [5])	growth at 30 µM (HT-29 [6])	growth at 0.01 µM (HOP-62)	other results
COc1cc2cc(Oc3ccc(NC(=O)Nc4ccc(Cl)c(C(F)(F)F)c4)cc3)c(C)nc2cc1OC	99%	87%	94%	97%	92%	91%	111%	112%	83%	78%	105%	87%	92%	26%	10%	12%	21%	-15%	-82%		
COc1cc2cc(Oc3ccc(NC(=O)Nc4ccc(Cl)c(Cl)c4)cc3)c(C)nc2cc1OC																				102%	growth at 0.01 µM (LOX IMVI): 95%; growth at 0.01 µM (M14): 84%; growth at 0.01 µM (DU-145): 109%; growth at 0.1 µM (IGROV-1): 112%; growth at 0.1 µM (CAKI-1): 87%; growth at 0.1 µM (TK-10): 121%; growth at 0.1 µM (MDA-MB-231 [7]): 92%; growth at 1 µM (HCC 2998 [8]): 96%; growth at 1 µM (SK-OV-3): 112%; growth at 10 µM (HCC 2998 [9]): 34%; growth at 10 µM (HT-29 [10]): -49%; growth at 10 µM (PC-3): -28%; growth at 100 µM (NCI-H322M [11]): -13%; growth at 100 µM (SF-539): -54%; growth at 100 µM (Hs-578T [12]): -45%
COc1cc2cc(Oc3ccc(NC(=O)Nc4cc(C(F)(F)F)cc(C(F)(F)F)c4)cc3)c(C)nc2cc1OC																				88%	growth at 0.01 µM (LOX IMVI): 97%; growth at 0.01 µM (M14): 92%; growth at 0.01 µM (DU-145): 103%; growth at 0.1 µM (IGROV-1): 95%; growth at 0.1 µM (CAKI-1): 90%; growth at 0.1 µM (TK-10): 89%; growth at 0.1 µM (MDA-MB-231 [7]): 98%; growth at 1 µM (HCC 2998 [8]): 79%; growth at 1 µM (SK-OV-3): 88%; growth at 10 µM (HCC 2998 [9]): -80%; growth at 10 µM (HT-29 [10]): -64%; growth at 10 µM (PC-3): -41%; growth at 100 µM (NCI-H322M [11]): -91%; growth at 100 µM (SF-539): -74%; growth at 100 µM (Hs-578T [12]): -9%
Cc1nc2cc(O)c(O)cc2cc1Oc1ccc(NC(=O)Nc2ccc(Cl)c(Cl)c2)cc1	100%	91%	108%	113%	101%	107%	106%	110%	92%	80%	102%	118%	101%	85%	83%	94%	92%	100%	13%		
